Results published in patent publication US9506938B2, “Methods for measuring platelet reactivity of individuals treated with drug eluting stents” (ACCUMETRICS, INC., priority 2007, dated 2016).
Where “and” joins values, the source holds several entries; their conditions need not be identical. Identical values can stand only once. Like-named read-outs stand apart in the source and are kept apart here.

Key:
platelet aggregation = settings: Muller et al. 2003; cited from earlier work
P2Y12 receptor [1] = molecular target: T1, P2Y12 receptor (Homo sapiens, UniProt Q9H244); assay: VerifyNow P2Y12 assay, post-treatment platelet reactivity (PRU) in patients with sirolimus-eluting stents (Example 3); format: in vivo; design: The patient sample is usually citrated whole blood; endogenous in cells; host or cells: platelets in citrated whole blood of patients
Method: Patients on clopidogrel therapy or who were clopidogrel naïve were eligible for inclusion. […] The assay contains […] and 22 nM prostaglandin E1 to reduce the activation contribution from ADP binding to P2Y1 receptors. […] With this assay, a higher PRU reflects greater ADP-mediated platelet reactivity. The mean coefficient of variation of test precision has been reported to be 3.2% in patients with coronary artery disease. Interventional strategy was at the discretion of the operator.

P2Y12 receptor [2] = molecular target: T1, P2Y12 receptor; settings: for percentage of inhibition: on clopidogrel at time of procedure; for percentage inhibition: clopidogrel naive, loaded with 600 mg
From the text: The VerifyNow™ System instrument is a turbidimetric-based optical detection system that measures platelet induced aggregation as an increase in light transmittance. The system includes an analyzer, disposable cartridge and controls. The cartridge contains reagents based on microparticle agglutination technology. The quality control system includes an electronic control, two levels of assayed “wet” controls (WQC), an in-cartridge humidity sensor, an in-packaging temperature indicator, and a test for concurrence of two assay channels. […] For use in the present methods the test cartridge of the system contains a lyophilized preparation comprising particles with passively bound GPIIb/IIIa receptor ligand, a composition of ADP and PGE1, and buffer. The patient sample is usually citrated whole blood, which is automatically dispensed from the blood collection tube into the cartridge by the analyzer, with no blood handling required by the user. The interaction is monitored by the infrared absorbency characteristics of the particles. As the particles interact with the platelets, the agglutination of the particles is measured through the optical system of the VerifyNow™ analyzer. The agglutination is detected as an increase in the transmission of infrared light through the sample. The reaction kinetics are analyzed and translated into “P2Y12 Response Units”, PRU.
Whole blood was obtained from the side port of the arterial sheath prior to anticoagulant or anti-thrombin therapy and by phlebotomy 12 hours post-PCI.
All patients received 325 mg uncoated aspirin the day of the procedure regardless of previous aspirin use. […] Either intra-procedural heparin (with a goal activated clotting time of >250 sec) or bivalirudin were administered during the procedure at operator discretion.
Patients were judged to be insulin resistant if their Homeostasis Model Assessment index, calculated as: [fasting insulin (μU/mL)]*[fasting glucose (mg/dl)]/405, was >3.0 or if they had diabetes requiring medication.

[3] = tested on: patients undergoing PCI with DES
Method: Interventional strategy was at the discretion of the operator. Either intra-procedural unfractionated heparin (with a goal-activated clotting time>250 s) or bivalirudin was used during the procedure. All patients received SES, and they received aspirin 325 mg on the day of the procedure regardless of previous aspirin use.
“Technical success” was defined as a final diameter stenosis ≦30% and thrombolysis in myocardial infarction (TIMI) flow grade 3. Clinical endpoints measured were cardiovascular (CV) death, non-fatal myocardial infarction (MI), and stent thrombosis. “MI over follow-up” was defined as any typical rise and fall of cardiac biomarkers in the setting of clinical signs or symptoms consistent with cardiac ischaemia, following the American College of Cardiology definition (Cannon, et al., J. Am. Coll. Cardiol. (2001) 38:2114-2130). The Academic Research Consortium definitions were used for “stent thrombosis” (definite, probable, and possible) (Mauri, et al., N. Engl. J. Med. (2007) 356:1020-1029). “Subacute stent thrombosis” was defined as stent thrombosis occurring after discharge to 30 day follow-up, and late-stent thrombosis was defined as stent thrombosis occurring between 30 day and 6 month follow-ups.
The computer-based analysis program SPSS (Statistical Package for the Social Sciences, 12.0 for PC, SPSS Inc., Chicago, Ill., USA) was used for statistical calculations. […] Comparison of continuous variables was performed using Student's t-test. The χ^2 test was used to detect differences in categorical variables, and a Fisher's exact test was used when any expected cell count was <5 for a 2 by 2 table. The Kolmogorov-Smirnov test was used to test for normality. A receiver-operating characteristic (ROC) curve analysis was used to determine the ability of the VERIFYNOW™ P2Y12 assay to distinguish between patients with and without post-discharge events after PCI. The optimal cut-off point was calculated by determining the post-treatment PRU that provided the greatest sum of sensitivity and specificity. Bootstrap validation was performed using R software. Survival curves were generated using the Kaplan-Meier method, and the difference between curves was assessed by log-rank test. A P-value<0.05 was considered significant.

[4] = tested on: ADP-induced human platelet aggregation; settings: read-out: IC50 for the inhibition of ADP-induced human platelet aggregation; cited from earlier work
[5] = after discharge, 6 month follow-up, all patients
[6] = clopidogrel for minimum 3 months, high reactivity (n = 121)
[7] = clopidogrel for minimum 3 months, lower reactivity (n = 252)
[8] = clopidogrel for minimum 3 months, overall group (n = 373)
[9] = clopidogrel through 6 month follow-up, high reactivity (n = 108)
[10] = clopidogrel through 6 month follow-up, lower reactivity (n = 258)
[11] = clopidogrel through 6 month follow-up, overall group (n = 317)
[12] = patients with high post-treatment reactivity
[13] = patients without high post-treatment reactivity

T1 sequence (Q9H244 whole entry): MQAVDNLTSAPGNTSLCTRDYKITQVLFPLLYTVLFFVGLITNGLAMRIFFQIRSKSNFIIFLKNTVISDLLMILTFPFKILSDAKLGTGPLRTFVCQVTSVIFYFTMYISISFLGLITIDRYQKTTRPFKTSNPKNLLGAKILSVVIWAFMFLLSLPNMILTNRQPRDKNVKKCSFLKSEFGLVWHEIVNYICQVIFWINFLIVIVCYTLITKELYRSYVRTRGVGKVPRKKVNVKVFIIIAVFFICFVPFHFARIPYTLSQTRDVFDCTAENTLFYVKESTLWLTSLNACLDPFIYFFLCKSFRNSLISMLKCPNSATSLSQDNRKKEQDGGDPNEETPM

COC(=O)[C@H](c1ccccc1Cl)N1CCc2sccc2C1 [clopidogrel]
patients receiving the drug who did not achieve the expected platelet aggregation inhibition (platelet aggregation): at least 10%
mean post-treatment reactivity (P2Y12 receptor [1]; all patients, n = 380): 184±85 PRU
post-treatment reactivity (P2Y12 receptor [1]; clopidogrel-naive patients, 12 h after 600 mg loading dose): 183±94 PRU
post-treatment reactivity of the patients who had stent thrombosis while taking antiplatelet therapy (P2Y12 receptor [1]; individual patients): 283 PRU and 292 PRU and 236 PRU and 244 PRU and 271 PRU
post-treatment reactivity (P2Y12 receptor [1]; patients on previous clopidogrel therapy): 186±73 PRU
platelet reactivity (P2Y12 receptor [1]; patients with adverse events): 242 PRU
platelet reactivity (P2Y12 receptor [1]; patients without adverse events): 186 PRU
percentage of inhibition (P2Y12 receptor [2]; Patient No. 1, acute thrombosis 80 minutes after PCI): 0%
percentage of inhibition (P2Y12 receptor [2]; Patient No. 2, sub-acute thrombosis 6 days following PCI): 0%
percentage inhibition (P2Y12 receptor [2]; Patient No. 3, sub-acute thrombosis 34 days following PCI): 0%
percentage inhibition (P2Y12 receptor [2]; Patient No. 4, sub-acute thrombosis 8 days following PCI): 44%
share of patients undergoing PCI with clopidogrel-induced platelet inhibition <10% (P2Y12 receptor [2]; point-of-care assay, N = 280): one quarter
overall rate of late-stent thrombosis ([3]; 30 day to 6 month follow-up): 0.8%
Non-fatal MI [3, 5]: 1.3%
combined endpoint of CV death, non-fatal MI, or stent thrombosis [3, 5]: 2.6%
episodes of stent thrombosis [3, 5]: 1.6%
Non-fatal MI [3, 6]: 2 (1.7) n (%)
Stent thrombosis [3, 6]: 5 (4.1) n (%)
Non-fatal MI [3, 7]: 2 (0.8) n (%)
Stent thrombosis [3, 7]: 0 n (%)
Non-fatal MI [3, 8]: 4 (1.1) n (%)
Stent thrombosis [3, 8]: 5 (1.3) n (%)
Non-fatal MI [3, 9]: 2 (1.9) n (%)
Stent thrombosis [3, 9]: 5 (4.6) n (%)
Non-fatal MI [3, 10]: 2 (1.0) n (%)
Stent thrombosis [3, 10]: 0 n (%)
Non-fatal MI [3, 11]: 4 (1.3) n (%)
Stent thrombosis [3, 11]: 5 (1.6) n (%)
overall rate of subacute stent thrombosis ([3]; discharge to 30 day follow-up): 0.8%
rate of CV mortality [3, 12]: 2.8%
rate of all-cause death, non-fatal MI, or stent thrombosis [3, 12]: 6.5%
rate of any stent thrombosis [3, 12]: 4.6%
rate of combined endpoint of CV death, non-fatal MI, or stent thrombosis [3, 12]: 6.5%
rate of definite or probable stent thrombosis [3, 12]: 2.8%
survival rate free from the combined endpoint of CV death, non-fatal MI, or stent thrombosis [3, 12]: 91.4%
rate of CV mortality [3, 13]: 0%
rate of all-cause death, non-fatal MI, or stent thrombosis [3, 13]: 1.4%
rate of any stent thrombosis [3, 13]: 0%
rate of combined endpoint of CV death, non-fatal MI, or stent thrombosis [3, 13]: 1.0%
rate of definite or probable stent thrombosis [3, 13]: 0%
survival rate free from the combined endpoint of CV death, non-fatal MI, or stent thrombosis [3, 13]: 99.0%

CCCCC[C@H](O)/C=C/[C@H]1[C@H](O)CC(=O)[C@@H]1CCCCCCC(=O)O [PGE1, prostaglandin E1]
IC50 [4]: ~40 nM

bivalirudin
post-treatment reactivity on clopidogrel by intra-procedural anticoagulant (P2Y12 receptor [1]; patients receiving intra-procedural heparin or bivalirudin): 184±84 PRU
